The subject of data set [1] is yellow fever mosquito Aedes aegyptii. As to conditions: cited from earlier work.
In the next data set the test system is colon cell line (H-29). As to conditions: cited from earlier work.
For data set [2], the system named is certain human tumor cell lines. As to conditions: values as low as; cited from earlier work.
The next data set has as its system lung cell line (A-549). As to conditions: cited from earlier work.
Data set [3] deals with newly hatched variegated cutworm (peridroma saucia, Noctuidae). The data set is described as follows: Chronic larval growth bioassay. As to conditions: 10 days at 26° C.; for activity at 20 ppm: Peridroma saucia, 240 h; for activity at 20 ppm / Larval growth, % of control / Larval survival, % of control: newly hatched larvae (n=20), 20 ppm. Format: in vivo. The protocol: Chromic larveal growth bioassay % of control given in parenthesis. […] These bioassays were carried out according to the procedure described earlier (M. B. Isman, O. Koul, A. Luczynski and J. Kaminski, J. Agric. Food Chem. 38, 1406 (1990). These tests were performed by Prof. M. B. Isman and colleagues at University of British Columbia, Vancouver, Canada.

The subject of data set [4] is oriental armyworm (Mythimna separata WLK) larvae. Nature of the data set: Insect antifeedant bioassay on sorghum leaf discs. Format: in vivo. As to conditions: for mortality: first and third instar larvae, concentration of 0.05% (MeOH) at 27°, untreated control 7% mortality; for Damage rating: 0.05% in methanol, visual scale 1 to 9 (1=<10%, 9=>80% leaf area consumed). The protocol: The sample solutions (10 μl of a 0.05% solution) were applied evenly to the lower surface of leaf discs (5 cm^2) cut from sorghum hybrid variety CSH5 and the discs were allowed to dry on filter papers. After drying the leaf, discs were offered to 10 first instar M. separata larvae in plastic cups or to one third instar larva in 9-cm (diameter) plastic petric dishes. All larvae were starved for 2 h before the test and the leaf and the leaf discs were kept on moisture filter papers to keep them turgid. The larvae were confined to leaf discs for 24 h and during the period the larvae scratched or consumed >80% of the leaf disc area in the untreated controls. The leaf discs were rated visually for the extent of feeding on a scale upto 1 to 9 (1=<10%, 2=11 to 20%, 3=21 to 30%, 4=31 to 40%, 5=41 to 7=61 to 70%, 8=71 to 80%, 9=>80% leaf area scratched consumed). The larvae were then stirred for 12 h and weighed. Isosquamocin was evaluated by this procedure and the results have shown that it drastically. The feeding of the leaves of sorghum hybrid variety CSH 5 at a concentration of 0.05% in methanol) in comparison with control (methanol) against the first instar and third instar larvae of oriental armyworm (Mythimna separata WLK). It is very toxic to first instar larvae causing high larval mortality and the results are presented below: […]

The subject of data set [5] is Southern Corn rootworm (SCRW). The data set is described as follows: Evaluation screen (EVAL) for insecticidal activity. The data set is classed as in vivo. As to conditions: 250 ppm.
The subject of another data set is corn plant hopper (CP-H). Nature of the data set: Evaluation screen delayed toxicity test (EVADT). As to conditions: 250 ppm. Format: in vivo. From the text:
(§1) Two spotted spidermite, green peach aphid (GPA) and corn plant hopper (GPH) when they were subjected evaluation screen (Eval) and evaluation screen delayed toxicity test EVDT for the insecticidal activity and results are summarized below: […]

In data set [6] the test system is Two spotted spidermite (TSSM). The data set is described as follows: Evaluation screen delayed toxicity test (EVADT). As to conditions: 250 ppm. Format: in vivo.
Description: as §1

For a further data set, the system named is green peach aphid (GPA). The data set is described as follows: Evaluation screen delayed toxicity test (EVADT). The data set is classed as in vivo. As to conditions: 250 ppm.
Description: as §1

Data set [7] concerns Two spotted spidermite (TSSM). The data set is described as follows: Evaluation screen (EVAL) for insecticidal activity. The data set is classed as in vivo. As to conditions: 250 ppm.
Description: as §1

The subject of the next data set is L-5178 Y. As to conditions: in vitro cytotoxic activity against L-5178 Y; cited from earlier work.
For the next data set, the system named is two sported spider mite. As to conditions: in vivo; cited from earlier work.
The next data set has as its system southern corn rootworm. As to conditions: in vivo; cited from earlier work.
A further data set deals with cotton aphid. As to conditions: in vivo; cited from earlier work.
Data set [8] in a line: Solubility of the waxy substance. The data set is classed as physicochemical.
Where [9] appears, read: First instar larvae, 0.05% in methanol on leaf discs, 24 h.

The source of these data is patent US6991818B2, “Compound iso-squamocin obtained from seeds of annona squamosa and composition containing the same” (Council of Scientific & Industrial Research, priority 2001, dated 2006).

In brackets after ≈: the same amount, converted by molar mass. Where two headings read alike, the source gives them in different places.

Regarding `CCCCCCCCCCCCC(O)C1CCC(C(O)CCCCC(O)CCCCCC(O)CC2=CC(C)OC2=O)O1` (stereo not drawn) [annonacin A, reference compound], the “LC 50” value in [1] was 10.8 mg/lit^−1.
`CCCCCCCCCC[C@H](O)[C@H]1CC[C@H]([C@H](O)CC[C@H](O)[C@@H]2CC[C@@H](CCCCCCC[C@@H](O)CC3=C[C@H](C)OC3=O)O2)O1` [bullatalicin, bullatalicin/squamostatin-B]: the “times more toxic than adriamycin” value in the data set on colon cell line (H-29) and with lung cell line (A-549) was “about 10,000 times” each time. Further, the ED50 in [2] is recorded as ≥ 10^−7 ug/ml. Besides, the “LC 50” value in data set [1] is 9 mg/lit^−1. Moreover, the activity at 20 ppm came out at 135% in data set [3] (read-out: Larval growth, % of control) and 100% in data set [3] (read-out: Larval survival, % of control).
`CCCCCCCCCC[C@H](O)[C@H]1CC[C@H]([C@H]2CC[C@H]([C@H](O)CCCCCCCCCC[C@@H](O)CC3=C[C@H](C)OC3=O)O2)O1` [squamocin-G] had a mortality in data set [4] of 70%. Further, the SCRW in [5] is 100. In addition, the CP-H result in the data set on corn plant hopper (CP-H) was “G8 (Greater than 80% reduction in population)”. Moreover, the TSSM result in data set [6] is listed as “L9 (Less than 90% reduction in population)”. Further, in the data set with green peach aphid (GPA), the GPA result was “L8 (Less than 80% mortality)”. Further, in [7], the TSSM entry was “L8 (Less than 80% mortality)”. In [3], the “Larval growth, % of control” value is 34% and the “Larval survival, % of control” value was determined as 45%. In addition, in data set [3] (chronic larval growth bioassay), the “EC 50” value is on record as 5.65 ppm and the “LC 50” value is 12 ppm.
On to `CCCCCC[C@@H](O)CCC[C@H](O)[C@@H]1CC[C@@H]([C@H](O)CC[C@@H](O)[C@@H]2CC[C@@H](CCCCCCCCCC3=C[C@@H](C)OC3=O)O2)O1` [squamostatin-A], for which the IC50 in the data set with L-5178 Y was 0.5 µg/mL (≈ 0.783 µM). Further, in data set [3], the “Larval growth, % of control” value is recorded as 138% and the “Larval survival, % of control” value amounted to 100%.
On to bullatacin, for which the “insecticidal concentration, two sported spider mite” value in the data set with two sported spider mite is 10 ppm. For the same compound, in the data set on southern corn rootworm, the “insecticidal concentration, southern corn rootworm” value is 24 ppm. Also, the “insecticidal concentration, cotton aphid” value in the data set with cotton aphid was 1 ppm.
Consider “bullatanocin/squamostatin-C/Annonin-V/Cherimolin-II”, for which the “times more toxic than adriamycin” value with colon cell line (H-29) and in the data set with lung cell line (A-549) was “about 10,000 times” each time.
As for isosquamocin, in [4] (setting [9]), the “Larval Survival (%)” value came to 10.4% and the “Mean larval mass” value was 0.2 mg. The compound also yielded a Damage rating in data set [4] (First instar larvae) of 1.3. Also, the “Mean larval mass” value in data set [4] (Third instar larvae, 0.05% in methanol on leaf discs, 24 h) worked out at 15.7 mg. For the same compound, the Damage rating in data set [4] (Third instar larvae) stood at 1.0. This compound came in with a mortality in [4] of 70%. In data set [5], this compound registered an SCRW of 100. Also, in the data set with corn plant hopper (CP-H), the CP-H entry was “G8 (Greater than 80% reduction in population)”. In data set [6], the TSSM entry is listed as “L9 (Less than 90% reduction in population)”. In addition, in data set [8], the “Solubility in ether, chloroform, dichloromethane, acetone, methanol and ethyl acetate” value is “readily soluble”; the “Solubility in petroleum ether/hexane and water” value is “insoluble or very sparingly soluble”. The TSSM result in data set [7] is given as “L8 (Less than 80% mortality)”. Besides, in [3], the “Larval growth, % of control” value amounted to 20% and the “Larval survival, % of control” value was 55%.

Usually mortality stands for the percentage killed. A higher mortality goes with fewer survivors. Broadly, the IC50 is the concentration needed to halve the response being measured.
